# How the values were obtained:
# C. neoformans strain H99 [1] = experiment: Murine cryptococcal meningitis model with ABT, dose-response study; type: in vivo, Cryptococcus neoformans
# Method: A dose-response study was performed with APX2096 and APX2097 to confirm the observed activity. In this study, QD doses of 7.5, 20, and 60 mg/kg were evaluated in conjunction with the administration of ABT. A 60-mg/kg dose QD without ABT was also evaluated as a control.
# FIG 3 Dose-response of APX2096 and APX2097 in a murine model of cryptococcal meningitis in conjunction with ABT administration. ABT at 100 mg/kg was administered orally to male CD-1 mice at 2 h prior to each APX compound dose. Mice were injected with 4.8 × 10^4 CFU C. neoformans strain H99 per mouse via the lateral tail vein at time zero. Treatment with the APX compounds was initiated at 1 h postinfection by i.p. administration and continued for 7 days, with 100-mg/kg ABT being administered orally 2 h prior to each APX compound dose. The correction factors for prodrug potencies versus the potencies of the active moieties were similar enough such that the same factor (1.3) was used for all APX compounds. Fungal burden data were log10 transformed and evaluated using Kruskal-Wallis tests with Dunn's multiple-comparison test for post hoc analysis (Prism software, v5; GraphPad Software, Inc., San Diego, CA). […] A P value of ≤0.05 was considered statistically significant (*, P ≤ 0.05; **, P ≤ 0.01; ***, P ≤ 0.001). The 95% confidence interval (CI) is presented.
# (§1) C. neoformans strain H99 was grown in yeast extract-peptone-dextrose broth at 30°C on a shaker (220 rpm) for 24 h, centrifuged (1,980 relative centrifugal force), and washed twice in phosphate-buffered saline (PBS), resuspended in PBS, and quantified by hemacytometric count. Male CD-1 mice were infected with ∼5 × 10^4 CFU per mouse via lateral tail vein injection of 100 μl. Mice were weighed, and treatment was begun within 1 h after infection. Treatments were administered daily for 7 days. Mice were weighed daily and observed for acute and chronic adverse symptoms. Mice were sacrificed on day 8, and the brain and left lung were homogenized and cultured for quantitative determination of the tissue burden (number of CFU per gram of tissue). Tissues were homogenized for 25 s in 1 ml phosphate-buffered saline using two 6.5-mm steel beads and a Mini-Beadbeater 16 apparatus (Biospec Products, Inc., Bartlesville, OK) and serially diluted in 10-fold steps. Aliquots (100 μl) of homogenate were plated and incubated for 3 to 7 days at 37°C. Fungal burden data were log10 transformed and evaluated using Kruskal-Wallis tests with Dunn's multiple-comparison test for post hoc analysis (Prism software, v5; GraphPad Software, Inc., San Diego, CA). A P value of ≤0.05 was considered statistically significant.
# C. neoformans strain H99 [2] = experiment: Murine cryptococcal meningitis model with ABT pretreatment (preliminary experiment); type: in vivo, Cryptococcus neoformans; details: 7 days
# Method: In a preliminary experiment, the efficacies of APX001, APX2096, and APX2097 were evaluated in the disseminated model of CM (n = 5 mice/cohort). ABT at 100 mg/kg was administered orally to male CD-1 mice 2 h prior to APX compound administration. Mice were injected with 6.9 × 10^4 CFU of C. neoformans strain H99 per mouse via the lateral tail vein at time zero. Treatment with each prodrug was initiated at about 1 h postinfection by i.p. administration and continued daily for 7 days, with 100-mg/kg ABT being administered orally 2 h prior to each APX compound dose.
# (§2) ABT at 100 mg/kg was administered orally to male CD-1 mice at 2 h prior to each APX compound dose. Mice were injected with 6.9 × 10^4 CFU of C. neoformans strain H99 per mouse via the lateral tail vein at time zero. Treatment with the APX compound was initiated at about 1 h postinfection by i.p. administration and continued for 7 days, with 100-mg/kg ABT being administered orally 2 h prior to each APX compound dose. […] Fungal burden data were log10 transformed and evaluated using Kruskal-Wallis tests with Dunn's multiple-comparison test for post hoc analysis (Prism software, v5; GraphPad Software, Inc., San Diego, CA). A P value of ≤0.05 was considered statistically significant (*, P ≤ 0.05; **, P ≤ 0.01). The 95% confidence interval (CI) is presented.
# as §1
# C. neoformans strain H99 [3] = experiment: Delayed-treatment model of cryptococcal meningitis; type: in vivo, Cryptococcus neoformans; details: treatment from 24 h after infection, QD 7 days; APX2096 60 mg/kg i.p. + ABT, AMB 3 mg/kg i.p.
# Method: As in the previous mouse model, 100-mg/kg ABT (p.o.) was administered 2 h prior to each APX2096 dose (n = 5 mice/cohort). Infection was initiated on day 1, and treatment was initiated 24 h later (day 2) rather than 1 h later. Treatments were administered for 7 days (the final dose was administered on day 8), and mice were sacrificed on day 9 for CFU enumeration.
# Male CD-1 mice were infected with 5.4 × 10^4 CFU per mouse via lateral tail vein injection. […] A dose of 100-mg/kg ABT was administered orally 2 h prior to each APX2096 dose. Mice were sacrificed 24 h after the last dose, and the brain and left lung were homogenized and cultured for quantitative determination of the tissue burden (number of CFU per gram of tissue). Fungal burden data were log10 transformed and evaluated using Kruskal-Wallis tests with Dunn's multiple-comparison test for post hoc analysis (Prism software, v5; GraphPad Software, Inc., San Diego, CA). A P value of ≤0.05 was considered statistically significant (*, P ≤ 0.05; **, P ≤ 0.01). The 95% confidence interval (CI) is presented.
# Fungal burden data were log10 transformed and evaluated using Kruskal-Wallis tests with Dunn's multiple-comparison test for post hoc analysis (Prism software, v5; GraphPad Software, Inc., San Diego, CA). A P value of ≤0.05 was considered statistically significant.
# [4] = Acute toxicity and survival observed in the CM model with ABT; type: in vivo, mouse; details: i.p. dosing + ABT; dose then reduced to 60 mg/kg for surviving mice
# Method: as §2, §1
# [5] = 34 mg/kg QD i.p. + ABT 100 mg/kg p.o.
smiles,measurement,setting,value
Nc1c(-c2cc(Cc3ccc(Oc4cccc(F)n4)cc3)no2)ccc[n+]1COP(=O)([O-])O [APX2096],reduction in brain fungal burden,C. neoformans strain H99 [1]; 20 mg/kg QD i.p. + ABT,2.95 log10 CFU/g
same,reduction in lung fungal burden,C. neoformans strain H99 [1]; 20 mg/kg QD i.p. + ABT,3.69 log10 CFU/g
same,"reduction in lung burden, without ABT","C. neoformans strain H99 [1]; 60 mg/kg/day i.p. without ABT, nonsignificant",0.74 log10 CFU/g
same,reduction in brain fungal burden,C. neoformans strain H99 [2]; [5],7.05 log10 CFU/g
same,reduction in lung fungal burden,C. neoformans strain H99 [2]; [5],approximately 4.67 log10 CFU/g
same,reduction in brain fungal burden,C. neoformans strain H99 [2]; 60 mg/kg i.p. (dose reduced after day 1) + ABT,7.13 log10 CFU/g
same,reduction in lung fungal burden,"C. neoformans strain H99 [2]; 60 mg/kg i.p. (dose reduced after day 1) + ABT, burden below the limit of detection",approximately 4.67 log10 CFU/g
same,reduction in brain tissue fungal burden vs untreated control,C. neoformans strain H99 [3],6.84 log10 CFU/g
same,reduction of the lung tissue fungal burden vs untreated control,C. neoformans strain H99 [3],4.59 log10 CFU/g
same,Acute toxicity observed (day of treatment),[4],day 1
